Test results as given in patent publication US20100168037A1 (priority 2002, published 2010).
Read-outs that look alike come from different tables or passages of the source. Where a SMILES comes first, the peptide text is derived from it. [ ]: non-standard residue; d: D form.

Assays:
[1] = biological target: RCA60 (Ricinus communis, UniProt P02879); type: binding
[2] = biological target: BoNT/B neurotoxin (Clostridium botulinum, UniProt P10844); type: binding
[3] = biological target: BoNT/A (Clostridium botulinum, UniProt P0DPI0); type: binding
[4] = biological target: BoNT/B (Clostridium botulinum, UniProt P10844); type: binding
BoNT/B, sequence (P10844 whole entry, looked up): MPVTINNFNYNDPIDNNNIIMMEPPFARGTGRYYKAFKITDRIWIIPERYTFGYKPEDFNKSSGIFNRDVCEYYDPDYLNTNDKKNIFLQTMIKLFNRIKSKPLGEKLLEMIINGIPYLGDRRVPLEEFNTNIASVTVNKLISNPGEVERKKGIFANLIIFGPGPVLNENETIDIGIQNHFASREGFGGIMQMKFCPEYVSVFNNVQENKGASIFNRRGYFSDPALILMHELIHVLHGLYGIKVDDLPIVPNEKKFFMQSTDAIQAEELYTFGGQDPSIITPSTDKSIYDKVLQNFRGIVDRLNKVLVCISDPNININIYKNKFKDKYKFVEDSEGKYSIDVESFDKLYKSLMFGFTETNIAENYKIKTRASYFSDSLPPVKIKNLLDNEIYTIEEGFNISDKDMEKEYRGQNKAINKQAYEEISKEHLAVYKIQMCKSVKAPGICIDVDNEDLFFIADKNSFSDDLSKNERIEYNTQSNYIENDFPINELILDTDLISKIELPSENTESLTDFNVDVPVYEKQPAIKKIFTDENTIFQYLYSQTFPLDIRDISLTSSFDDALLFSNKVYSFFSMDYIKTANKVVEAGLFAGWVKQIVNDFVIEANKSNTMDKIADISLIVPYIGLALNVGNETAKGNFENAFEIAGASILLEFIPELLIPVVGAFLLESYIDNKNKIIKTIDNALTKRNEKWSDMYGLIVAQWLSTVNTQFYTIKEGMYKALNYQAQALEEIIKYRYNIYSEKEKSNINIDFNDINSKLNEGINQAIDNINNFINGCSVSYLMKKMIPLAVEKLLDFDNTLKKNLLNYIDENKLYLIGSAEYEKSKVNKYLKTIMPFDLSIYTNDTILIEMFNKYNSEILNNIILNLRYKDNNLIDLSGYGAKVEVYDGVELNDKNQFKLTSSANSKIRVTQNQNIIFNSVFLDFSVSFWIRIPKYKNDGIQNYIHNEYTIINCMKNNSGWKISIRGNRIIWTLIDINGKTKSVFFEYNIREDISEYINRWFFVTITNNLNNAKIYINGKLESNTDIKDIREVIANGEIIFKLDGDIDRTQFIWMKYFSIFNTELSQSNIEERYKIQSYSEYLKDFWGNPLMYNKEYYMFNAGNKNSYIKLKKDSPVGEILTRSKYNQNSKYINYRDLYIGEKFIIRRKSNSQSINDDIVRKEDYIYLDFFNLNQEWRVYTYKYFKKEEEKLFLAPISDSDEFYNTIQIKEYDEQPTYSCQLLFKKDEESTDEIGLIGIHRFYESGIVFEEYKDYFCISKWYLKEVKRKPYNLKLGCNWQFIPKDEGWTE

[5] = biological target: BotB complex (Clostridium botulinum, UniProt P10844); type: binding
BotB complex, sequence (P10844 2-1291 limits assumed, one chain of several): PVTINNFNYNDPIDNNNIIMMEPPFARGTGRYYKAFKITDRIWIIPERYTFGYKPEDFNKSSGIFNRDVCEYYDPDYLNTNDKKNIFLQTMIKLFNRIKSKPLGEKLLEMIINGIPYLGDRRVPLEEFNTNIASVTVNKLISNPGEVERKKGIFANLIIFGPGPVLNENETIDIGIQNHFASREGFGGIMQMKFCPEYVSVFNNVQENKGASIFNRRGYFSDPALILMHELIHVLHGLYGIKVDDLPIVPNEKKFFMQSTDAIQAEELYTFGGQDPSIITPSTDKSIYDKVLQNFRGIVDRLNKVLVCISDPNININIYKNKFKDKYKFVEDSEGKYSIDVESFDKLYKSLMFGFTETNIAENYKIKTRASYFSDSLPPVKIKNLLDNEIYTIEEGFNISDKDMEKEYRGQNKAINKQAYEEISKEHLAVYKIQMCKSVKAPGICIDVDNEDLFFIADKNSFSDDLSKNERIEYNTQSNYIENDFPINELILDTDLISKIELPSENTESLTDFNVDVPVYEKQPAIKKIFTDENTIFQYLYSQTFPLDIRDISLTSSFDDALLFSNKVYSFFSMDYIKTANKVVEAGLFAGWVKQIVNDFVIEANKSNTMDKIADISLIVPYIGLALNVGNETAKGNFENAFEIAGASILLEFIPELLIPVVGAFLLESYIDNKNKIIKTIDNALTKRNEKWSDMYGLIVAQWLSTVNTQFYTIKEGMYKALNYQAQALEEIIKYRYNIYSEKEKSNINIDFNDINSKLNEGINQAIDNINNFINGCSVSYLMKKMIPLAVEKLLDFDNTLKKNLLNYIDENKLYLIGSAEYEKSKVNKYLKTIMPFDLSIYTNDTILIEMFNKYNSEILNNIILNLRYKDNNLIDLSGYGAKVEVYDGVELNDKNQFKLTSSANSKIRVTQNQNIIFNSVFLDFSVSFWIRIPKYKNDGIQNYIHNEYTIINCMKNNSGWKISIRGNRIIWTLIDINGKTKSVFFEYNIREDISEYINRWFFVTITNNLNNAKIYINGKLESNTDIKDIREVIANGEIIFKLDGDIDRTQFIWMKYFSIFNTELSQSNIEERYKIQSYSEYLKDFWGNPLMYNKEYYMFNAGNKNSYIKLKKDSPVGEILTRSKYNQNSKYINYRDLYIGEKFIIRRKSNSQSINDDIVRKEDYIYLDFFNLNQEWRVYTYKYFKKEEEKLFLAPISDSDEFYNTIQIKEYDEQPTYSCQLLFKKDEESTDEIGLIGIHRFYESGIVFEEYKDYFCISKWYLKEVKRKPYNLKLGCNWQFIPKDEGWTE

[6] = mouse, in vivo
[7] = biological target: T1, ConA (Canavalia ensiformis, Jack Bean Lectin) (Canavalia ensiformis, UniProt P02866); assay: Bead library screen, binding of AP-ConA; settings: peptide on TentaGel bead; AP / NBT-BCIP detection
T1 construct: purchased EY Laboratories (San Mateo, Calif.)

BoNT/B neurotoxin, sequence (P10844 whole entry, looked up): as the sequence (P10844 whole entry, looked up) above

Structure (SMILES) | Saturation Concentration [1] | binding of BoNT/B to D-peptide bead (positive bead sequenced) [2] | binding of BoNT/A in the microplate binding assay [3] | binding of BoNT/B in the microplate binding assay [4] | other results
C[C@@H](N)C(=O)N[C@H](Cc1ccccc1)C(=O)N[C@H](Cc1ccc(O)cc1)C(=O)N[C@H](C)C(=O)N[C@H](Cc1ccc(O)cc1)C(=O)N[C@H](CCCCN)C(=O)N[C@H](CCCCN)C(=O)N[C@H](CCCCN)C(=O)O [AFYAY] (H-[dA][dF][dY][dA][dY][dK][dK][dK]-OH; C-terminus assumed) | 100 nM | – | – | – | –
C[C@@H](NC(=O)CN)C(=O)N[C@H](Cc1ccccc1)C(=O)N[C@H](Cc1ccccc1)C(=O)N[C@H](Cc1c[nH]c2ccccc12)C(=O)N[C@H](CCCCN)C(=O)N[C@H](CCCCN)C(=O)N[C@H](CCCCN)C(=O)O [GAFFW] (H-G[dA][dF][dF][dW][dK][dK][dK]-OH; C-terminus assumed) | – | identified | bound | bound | –
NCCCC[C@@H](NC(=O)[C@@H](CCCCN)NC(=O)[C@@H](CCCCN)NC(=O)[C@@H](Cc1ccc(O)cc1)NC(=O)[C@@H](Cc1ccccc1)NC(=O)[C@@H](Cc1ccccc1)NC(=O)[C@@H](Cc1ccccc1)NC(=O)CN)C(=O)O [GFFFY] (H-G[dF][dF][dF][dY][dK][dK][dK]-OH; C-terminus assumed) | – | binding | bound | bound | Saturation Concentration [3]: 3 to 4 nM; Kd ([3]; read-out: Estimated Kd): 1 to 2 nM; Saturation Concentration [4]: 3 to 4 nM; Kd ([4]; read-out: Estimated Kd): 1 to 2 nM; Saturation Concentration [5]: 2.3 nM; binding of BotB complex in the microplate binding assay [5]: bound; Kd ([5]; read-out: Estimated Kd): 0.022 nM
NCCCC[C@@H](NC(=O)[C@@H](CCCCN)NC(=O)[C@@H](CCCCN)NC(=O)[C@@H](Cc1ccc(O)cc1)NC(=O)[C@@H](Cc1c[nH]c2ccccc12)NC(=O)CNC(=O)[C@@H](Cc1ccccc1)NC(=O)CN)C(=O)O [GFGWY] (H-G[dF]G[dW][dY][dK][dK][dK]-OH; C-terminus assumed) | – | identified | bound | bound | –
NCCCC[C@@H](NC(=O)[C@@H](CCCCN)NC(=O)[C@@H](CCCCN)NC(=O)[C@@H](Cc1ccc(O)cc1)NC(=O)CNC(=O)[C@@H](Cc1c[nH]c2ccccc12)NC(=O)[C@@H](Cc1ccccc1)NC(=O)CN)C(=O)O [GFWGY] (H-G[dF][dW]G[dY][dK][dK][dK]-OH) | – | – | – | – | signs of toxicity ([6]; ip): no apparent toxicity; signs of toxicity ([6]; iv): no apparent toxicity
NCCCC[C@@H](NC(=O)[C@@H](CCCCN)NC(=O)[C@@H](CCCCN)NC(=O)[C@@H](Cc1ccccc1)NC(=O)[C@@H](Cc1ccccc1)NC(=O)[C@@H](Cc1ccc(O)cc1)NC(=O)[C@@H](Cc1ccccc1)NC(=O)CN)C(=O)O [GFYFF] (H-G[dF][dY][dF][dF][dK][dK][dK]-OH; C-terminus assumed) | 100 nM | binding | – | – | binding of ConA to D-peptide bead (positive bead sequenced) [7]: binding
